Columns and labels:
[1] = target: T1, E. coli Tat machinery (IMVs containing overproduced TatABC) (Escherichia coli, UniProt P69423+P69425+P69428); assay: In vitro Tat transport assay of pre-SufI into IMVs, ATP as energy source; format: biochemical; conditions: hit compound 20 μM; ATP 1 mM
Protocol: (§1) To directly test for inhibition of Tat transport, a gel-based in vitro Tat transport assay was performed using pre-SufI, an authentic Tat precursor protein [7]. In short, this assay consists of incubating a Tat substrate and a Δψ-generating energy source with inverted membrane vesicles (IMVs) containing overproduced TatABC, digesting remaining external protein with a protease, and then analyzing via SDS-PAGE. This assay was run twice using NADH and ATP (if warranted) as energy sources to generate the necessary Δψ. NADH generates a Δψ using respiratory proteins (i.e., the NADH dehydrogenase and cytochrome bo3 ubiquinol oxidase complexes) and ATP generates a Δψ by reversal of ATP synthase. A true Tat inhibitor would survive both assays. In contrast, a respiration inhibitor is expected to reduce Tat transport when only one of the two energy sources is used (except for an ionophore).
Fig 8 Effect of Hits from the Local HTS on In Vitro Tat Transport. (A) Tat transport assays of pre-SufI using NADH to generate a Δψ. […] Samples were treated with the protease proteinase K, run on SDS-PAGE, and analyzed by in-gel fluorescence imaging. Assays were run in duplicate. Band intensity corresponds to the amount of protein transported into the IMV lumen. The following 7 compounds survived this screen: 1^JS, 51^JS, 55^JS, 111^JS, 181^JS, 202^JS, and 140^JS (boxed in red). (B) Tat transport assays of pre-SufI using ATP to generate a Δψ. All 7 compounds surviving the screen in (A) were tested using a Tat transport assay performed identically to those in (A) except that ATP (1 mM) was used in place of NADH. […]
Isolation of inverted membrane vesicles (IMVs), Western blot analyses and purification of pre-SufI-IAC were performed as described previously. […] The presence of a Δψ was determined by measuring oxonol VI fluorescence in presence of Tat^+ IMVs (A280 = 0.5), as described previously, except that the translocation buffer lacked BSA. Steady-state fluorescence spectra and fluorescence intensities of whole cells producing mCherry proteins were determined with an SLM-8100 spectrofluorometer.

[2] = target: T1, E. coli Tat machinery (IMVs containing overproduced TatABC); assay: In vitro Tat transport assay of pre-SufI into IMVs, NADH as energy source; format: biochemical; conditions: hit compound 20 μM; NADH 4 mM; 37°C 30 min
Protocol: as §1
Fig 8 Effect of Hits from the Local HTS on In Vitro Tat Transport. (A) Tat transport assays of pre-SufI using NADH to generate a Δψ. Inverted membrane vesicles (IMVs; A280 = 5.0), the fluorescent substrate pre-SufI-IAC^Atto565 (90 nM), and NADH (4 mM) were incubated at 37°C for 30 min with DMSO (control) or with hit compound (20 μM). Samples were treated with the protease proteinase K, run on SDS-PAGE, and analyzed by in-gel fluorescence imaging. Assays were run in duplicate. Band intensity corresponds to the amount of protein transported into the IMV lumen. The following 7 compounds survived this screen: 1^JS, 51^JS, 55^JS, 111^JS, 181^JS, 202^JS, and 140^JS (boxed in red). (B) Tat transport assays of pre-SufI using ATP to generate a Δψ. All 7 compounds surviving the screen in (A) were tested using a Tat transport assay performed identically to those in (A) except that ATP (1 mM) was used in place of NADH. Compound 55^JS was eliminated by this assay—the other 6 compounds survived (boxed in red). (C) Chemical structure of compound 55^JS, N-(4,7-Dioxo-4,7-dihydro-2,1,3-benzoxadiazol-5-yl)acetamide.
Isolation of inverted membrane vesicles (IMVs), Western blot analyses and purification of pre-SufI-IAC were performed as described previously. Western blots were performed using rabbit anti-mCherry antibodies (1:10,000 dilution) in the presence of 0.1% Triton X-100 and 0.1% Tween 20. The pre-SufI-IAC protein was labeled with Atto565 maleimide, and the resultant fluorescent protein, pre-SufI-IAC^Atto565, was used as a substrate for the in vitro Tat transport assays (A280 = 5.0), as described previously. The presence of a Δψ was determined by measuring oxonol VI fluorescence in presence of Tat^+ IMVs (A280 = 0.5), as described previously, except that the translocation buffer lacked BSA. Steady-state fluorescence spectra and fluorescence intensities of whole cells producing mCherry proteins were determined with an SLM-8100 spectrofluorometer.
Supplementary file pone.0149659.s003.tiff: S3 Fig IC50's for Hit Compound 181^JS. (A) The total cellular mCherry fluorescence (live cell assay; n = 1), (B) the in vitro NADH-dependent Tat transport efficiency of pre-SufI (n = 1), and (C) the maximum transmembrane electrical potential gradient (n = 1) were measured for a range of concentrations of compound 181^JS (S2E Fig). (D) SDS-PAGE gel showing in-gel fluorescence data used in (B). For (A), cells expressing spTorA-mCherry-SsrA were grown under Tat^++ conditions in a 384-well plate in the presence of 0, 0.08, 0.15, 0.3, 0.63, 1.25, 2.5, 5, 10, 20, or 40 μM compound 181^JS, as described for the HTS assay (see Methods). For (B) and (C), IMVs were incubated with the same concentrations of compound 181^JS prior to initiation of Tat transport and Δψ generation by the addition of NADH, as described previously. The red curves are best-fits using y = d + (100-d)/(1+(x/IC50)^b), where b is a slope factor and d is the high concentration asymptote. (TIFF) Click here for additional data file.

T1 sequence (P69423 2-258): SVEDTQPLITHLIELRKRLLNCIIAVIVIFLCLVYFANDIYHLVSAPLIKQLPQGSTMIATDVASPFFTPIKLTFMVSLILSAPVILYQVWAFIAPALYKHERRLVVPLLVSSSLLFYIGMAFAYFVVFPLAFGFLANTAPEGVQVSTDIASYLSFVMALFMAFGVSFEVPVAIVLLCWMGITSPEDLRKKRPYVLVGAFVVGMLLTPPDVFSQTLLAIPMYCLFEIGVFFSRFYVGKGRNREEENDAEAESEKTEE
T1 sequence (P69425 whole entry): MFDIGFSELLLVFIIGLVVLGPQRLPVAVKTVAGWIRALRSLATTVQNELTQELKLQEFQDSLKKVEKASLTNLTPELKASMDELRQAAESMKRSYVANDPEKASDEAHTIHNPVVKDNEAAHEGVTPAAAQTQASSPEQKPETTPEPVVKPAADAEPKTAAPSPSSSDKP
T1 sequence (P69428 whole entry): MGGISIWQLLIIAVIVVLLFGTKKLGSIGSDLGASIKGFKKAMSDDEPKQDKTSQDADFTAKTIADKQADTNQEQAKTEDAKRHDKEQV

CC(=O)NC1=CC(=O)c2nonc2C1=O [Compound 55^JS, N-(4,7-dioxo-2,1,3-benzoxadiazol-5-yl)acetamide]
outcome of ATP-dependent in vitro Tat transport screen (survival = visible inhibition of Tat transport) [1]: eliminated
outcome of NADH-dependent in vitro Tat transport screen (survival = visible inhibition of Tat transport) [2]: survived
